Measurements as given in BindingDB's records for doi:10.1046/j.1471-4159.2002.00817.x (Uppsala University, 2002).

How the values were obtained:
[1] = target: T1, Neuropeptide Y receptor type 1 (Gallus gallus, UniProt Q8QFM1)
T1 sequence (Q8QFM1 whole entry): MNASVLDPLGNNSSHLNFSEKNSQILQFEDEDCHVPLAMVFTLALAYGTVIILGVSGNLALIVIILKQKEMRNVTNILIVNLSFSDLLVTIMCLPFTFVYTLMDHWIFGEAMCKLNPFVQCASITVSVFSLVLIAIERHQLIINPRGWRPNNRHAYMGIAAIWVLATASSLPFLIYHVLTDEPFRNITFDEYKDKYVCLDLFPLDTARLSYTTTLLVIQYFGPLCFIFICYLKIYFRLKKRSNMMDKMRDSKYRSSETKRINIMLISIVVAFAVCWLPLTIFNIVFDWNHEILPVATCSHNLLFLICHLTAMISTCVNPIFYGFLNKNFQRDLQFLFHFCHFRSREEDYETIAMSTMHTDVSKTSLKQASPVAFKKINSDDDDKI

[2] = target: T2, Neuropeptide Y receptor type 5 (Gallus gallus, UniProt Q8QFM2)
T2 sequence (Q8QFM2 whole entry): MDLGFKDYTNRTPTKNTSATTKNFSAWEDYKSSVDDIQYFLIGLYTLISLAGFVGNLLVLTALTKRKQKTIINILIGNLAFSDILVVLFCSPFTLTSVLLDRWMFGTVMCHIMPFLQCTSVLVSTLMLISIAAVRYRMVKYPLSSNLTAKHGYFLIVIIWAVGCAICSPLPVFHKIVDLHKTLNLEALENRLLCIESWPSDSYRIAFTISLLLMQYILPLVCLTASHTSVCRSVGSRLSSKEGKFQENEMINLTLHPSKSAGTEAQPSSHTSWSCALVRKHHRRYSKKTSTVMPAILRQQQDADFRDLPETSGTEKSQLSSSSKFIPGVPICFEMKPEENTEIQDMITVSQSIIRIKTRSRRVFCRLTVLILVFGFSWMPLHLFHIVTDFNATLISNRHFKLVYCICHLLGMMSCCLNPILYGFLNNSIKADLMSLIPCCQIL

Ki [1] [µM] | Ki [2] [nM] | Molecule
> 10 | 0.48 | CC[C@H](C)[C@H](NC(=O)[C@H](Cc1ccc(O)cc1)NC(=O)[C@H](CCCNC(=N)N)NC(=O)[C@H](CCCNC(=N)N)NC(=O)[C@H](CC(C)C)NC(=O)[C@H](CC(=O)O)NC(=O)[C@H](C)NC(=O)[C@H](C)NC(=O)[C@H](Cc1ccc(O)cc1)NC(=O)[C@H](CCC(N)=O)NC(=O)[C@H](C)NC(=O)[C@H](CCSC)NC(=O)[C@H](CCC(N)=O)NC(=O)[C@H](CCC(=O)O)NC(=O)[C@@H]1CCCN1C(=O)[C@@H](NC(=O)[C@H](C)NC(=O)[C@H](CC(N)=O)NC(=O)[C@H](CC(=O)O)NC(=O)CNC(=O)[C@@H]1CCCN1C(=O)[C@H](Cc1ccc(O)cc1)NC(=O)[C@@H](NC(=O)[C@@H]1CCCN1C(=O)[C@H](CCC(=O)O)NC(=O)[C@H](CC(C)C)NC(=O)[C@@H]1CCCN1C(=O)[C@H](C)N)C(C)C)[C@@H](C)O)C(=O)N[C@@H](CC(N)=O)C(=O)N[C@@H](CCSC)C(=O)N[C@@H](CC(C)C)C(=O)N[C@H](C(=O)N[C@@H](CCCNC(=N)N)C(=O)N1CCC[C@H]1C(=O)N[C@@H](CCCNC(=N)N)C(=O)N[C@@H](Cc1ccc(O)cc1)C(N)=O)[C@@H](C)O [CAS_59763-91-6]
> 10 | – | Nc1nc(NC[C@H]2CC[C@H](CNS(=O)(=O)c3cccc4ccccc34)CC2)nc2ccccc12 [CGP 71683]
– | > 10000 | N=C(N)NCCCC(NC(=O)C(c1ccccc1)c1ccccc1)C(=O)NCc1ccc(O)cc1 (stereo unspecified) [NSC_5311023]
> 10 | > 10000 | CN(C)CC1CCC(CN=C(N)c2ccc(CC(NC(=O)C(Cc3ccccc3)NS(=O)(=O)c3ccc4ccccc4c3)C(=O)N3CCCC3)cc2)CC1 (stereo unspecified) [CAS_5312150]
> 10 | – | NC(N)=NCCCC(NC(=O)CC1(CC(=O)N2CCN(C3c4ccccc4NC(=O)c4ccccc43)CC2)CCCC1)C(=O)NCCn1c(=O)n(-c2ccccc2)n(-c2ccccc2)c1=O (stereo unspecified) [NSC_5311024]
> 10 | 4.68 | H-GPSQPTYPGDDAPVEDLIRFYNDLQQYLNVVTRHRY-NH2 [NSC_0]

Molecule | Ki [1] [µM] | Ki [2] [nM]
O=c1oc2ccccc2c(O)c1C1CC(c2ccc(-c3ccccc3)cc2)Cc2ccccc21 (stereo unspecified) [NSC_41735] | > 10 | 0.81
